Assay results as given in patent publication US20160243080A1, “FORMULATIONS OF ANGIOTENSIN RECEPTOR BLOCKERS” (priority 2015, published 2016).
Entries after “also recorded” stand apart in the source; their conditions may differ. Like-named read-outs stand apart in the source and are kept apart here.

Legend:
in vivo = conditions: Yucatan miniature swine, pig
Protocol: Plasma standards and samples (50 μL) were extracted in 500 μL methanol containing 100 nM losartan (internal standard). Extracts were centrifuged at 16000×g for 5 minutes at 4° C. to precipitate proteins. Extracts (500 μL) were transferred to a new tube and dried in vacuum at 45° C. for 90 minutes. Samples were reconstituted in 30% acetonitrile in water (50 μL) and centrifuged as above. Supernatants (45 μL) were transferred to a 96 well plate. Analytes (10 μL) were separated on an Agilent 1290 UPLC system with a c18 column using a gradient run of 50-95% acetonitrile over 2 minutes at 0.4 mL/minute and detected on an Agilent 6520 QTOF mass spectrometer. Standards within the quantifiable range were used to generate a standard curve.
Prior to surgery (Day 0), Day 10 (pre-dose), Day 18 (pre-dose), and Day 57 (prior to termination); blood samples (3 mL/animal) were collected, processed to plasma by centrifuging for approximately 15 minutes at 3000 rpm at 4° C., transferred into labeled cryovials, immediately frozen on dry ice, and shipped to the sponsor for future analysis.

[1] = tested on: 5 cm full-thickness circular excisional wounds; experiment: Wound healing in aged diabetic Yucatan miniature swine: digital photography, planimetry, image analysis; type: in vivo, Sus scrofa
Protocol: Both gels are applied daily. • Wound measurements: On a daily basis, planimetry and digital photography are conducted to assess changes in wound size. • Upon complete closure: Healed wound tissue is collected and analyzed. The study had two treatment groups, which consisted of a test article treatment or a vehicle control treatment on three diabetic (alloxan-induced) Yucatan miniature swine. The acclimation period was 7 days. On Day 0, each study animal underwent surgery to create 8 (4 per side) 5 cm full-thickness circular excisional wounds on their dorsal surface. All wounds were initially topically treated with the same (Treatment A) compound once daily for the first 7 days (Day 0 through Day 6). Thereafter, 4 wounds per animal received daily topical administration of Treatment B, and the other 4 wounds received Treatment C for the duration of the study. All wound sites (8 per animal) were covered with one dressing type. All wounds were observed/evaluated up through final sample collection (Day 57). The experimental study design, including treatment groups and wound sites/time points, and variables to be evaluated and intervals are presented in Tables 1 through 3. On Day 0, the dorso-lateral back area of each animal was closely clipped with electric clippers. Each animal was prepared for surgery using alternating disinfecting scrubs and isopropyl alcohol rinses. The surgical area was draped and a sufficiently large hole(s) was created within the drape(s). The proposed wound sites were outlined using a sterile template and sterile marker. […] Refer to FIG. 3. • a. Using a surgical blade, eight 5 cm full-thickness circular excisional wounds were created (down to the fat layer). All excised tissue from each wound site was discarded. • b. Direct pressure was utilized to obtain hemostasis. • c. […] Each animal was monitored until it had completely recovered from the anesthesia. […] Each animal was monitored until it had completely recovered from anesthesia (if employed). […]

[2] = type: in vivo; conditions: body weight, blood pressure, blood glucose, serum chemistry and hematology
Excerpt: Prior to this study, selected male animals had been castrated and fitted with vascular access ports (VAP) for diabetic induction. After these animals had fully recovered from VAP procedures, diabetes was chemically-induced using alloxan. Following induction, the glucose levels of the animals was monitored and regulated with Vetsulin (or equivalent). A glucometer and/or other appropriate device was used to determine glucose levels of the animals. VAP procedures, diabetic induction, and recovery periods were conducted under a separate SRC standard protocol prior to the initiation of this study. Glucose levels of all study animals were monitored and regulated at least once daily during the study to keep within targeted glucose range (target 200 to 600 mg/dL). Blood pressure was determined for each animal on Days 7, 8, 18, and 57 (prior to termination).
General in-cage/pen observations for mortality/moribundity were made at least daily.
Animals were weighed once during acclimation (Day −1) and again prior to termination (Day 57).
Day −5 (acclimation), Day 10 (pre-dose), Day 18 (pre-dose) and Day 57 (prior to termination); blood samples for CBC and serum chemistries were collected for clinical pathology analysis from each animal and analyzed by SRC. • Hematology: Blood samples (3 mL/animal) were collected from all animals. K3EDTA was used as anticoagulant. […]

[3] = tested on: wounds of diabetic (Leprdb) mice; experiment: Mouse model wound healing experiments, planimetric wound closure; type: in vivo; conditions: topical, applied from 7 days after wounding (proliferation/remodeling phase)
Excerpt: In FIG. 11, the “ratio” (y-axis) reflects the percentage of wound closure as compared to the wound size on day 7 in the same animal.

AT2R mRNA = experiment: mRNA expression in treated mouse wounds; type: in vivo
TGFβ3 mRNA = experiment: mRNA expression in treated mouse wounds; type: in vivo; conditions: P<0.05
wounds of AT2R^−/− mice = experiment: Wound healing in AT2R^−/− mice; type: in vivo, mouse
Excerpt: Pharmacologically, ARBs and ACE inhibitors differ on their mechanism of action and the level at which they block RAS. While ARBs block RAS distally at the AT1R level, ACEi block the conversion of Angiotensin I to Angiotensin II and thereby diminishing available Angiotensin II to bind to either AT1R or AT2Rs. […] Collagen is a marker for assessing skin strength.

Smad1 = experiment: Immunohistochemistry of Smads in wounds of aged diabetic pigs; type: in vivo; conditions: pig wounds, vs placebo
Excerpt: (§1) Although not completely characterized, wound healing is greatly influenced by subtle changes of transforming growth factor-beta (TGF-β) superfamily, which is strongly influenced by RAS. TGF-β signaling mediate the phosphorylation of Smad family proteins. Phosphorylated Smads then translocate to the nucleus with the common-mediator (co-Smad) Smad4. Additionally, Smad activity is also regulated by phosphorylation through non-receptor kinases such as p42/44 mitogen activating protein kinase (MAPK) and p38 MAPK. In chronic wounds, failure of TGF-β Smad 2 and 3 phosphorylation and reduction in p42/44 MAPK activity was associated with a slower proliferative rate and impaired healing. RAS has been tightly linked to TGFβ activity but the specific effects of AT1R on the different Smads during wound healing are not known.

Smad2 = experiment: as above; type: in vivo; conditions: pig wounds, vs placebo
Excerpt: as §1

Smad3 = experiment: as above; type: in vivo; conditions: pig wounds, vs placebo
Excerpt: as §1

[4] = tested on: phosphorylated Smad1, 5 and 9; experiment: as above; type: in vivo; conditions: pig wounds, vs placebo
Excerpt: as §1

VEGF Receptor 2 = experiment: Proliferation and angiogenesis markers in aged diabetic pig wounds; type: in vivo
Excerpt: (§2) An increase in a-SMA and phosphorylated VEGF Receptor 2 was also observed. Finally, the inventors have previously reported the presence of a functional mitochondrial angiotensin system within the mitochondria that played a role in mitochondrial bioenergetics regulation.

[5] = tested on: alpha-smooth muscle actin (α-SMA); experiment: as above; type: in vivo
Excerpt: as §2

p42/44 MAPK = experiment: as above; type: in vivo
Excerpt: as §2

mitochondrial Cox IV = experiment: Mitochondrial content in aged diabetic pig wounds; type: in vivo
Excerpt: as §2

[6] = tested on: healing skin of aged diabetic pigs; experiment: Masson's trichrome and H&E staining of skin sections from aged diabetic pigs; type: in vivo, pig
Excerpt: Using Mason Trichrome (FIG. 22, panels A-H) and H&E stains (FIG. 22, panel I). Collagen content and other histological changes in healing skin were examined. Tensiometry was employed to quantify differences in tensile strength between placebo and valsartan treated wounds.

[7] = tested on: healing skin of aged diabetic pigs; experiment: Tensiometry of healed pig skin; type: in vivo; conditions: vs placebo
Protocol: At termination, an approximately 8 mm×16 mm tensiometry sample was collected from the dorsal side of each wound site that spanned the cranial to caudal aspect of the wound for analysis. This procedure was performed and data maintained by sponsor personnel. No details of analysis or results were included in this in-life report. […] Using Mason Trichrome (FIG. 22, panels A-H) and H&E stains (FIG. 22, panel I). Collagen content and other histological changes in healing skin were examined. Tensiometry was employed to quantify differences in tensile strength between placebo and valsartan treated wounds.

wound = experiment: Diabetic mouse and pig wound models, timing of topical application (summary statements); type: in vivo; conditions: first 1-7 days after wounding
[8] = cited from earlier work

Question: For CCCCC(=O)N(Cc1ccc(-c2ccccc2-c2nnn[nH]2)cc1)[C@H](C(=O)O)C(C)C [valsartan], which concentration at 57 day (in vivo) is on record?
Answer: < 1 nM

Question: What about the “epithelization (automated digital analysis of wound images)” value ([1]; aged diabetic pigs, vs placebo) of the same molecule?
Answer: higher rates of epithelization

Question: What about the “slough at the wound base (automated digital analysis of wound images)” value ([1]; aged diabetic pigs, vs placebo) of the same molecule?
Answer: lower accumulation of slough at the wound base; also recorded: clearance of slough

Question: And the “healing rate / wound closure rate (planimetry) as compared to placebo” value ([1]; diabetic pigs, daily topical from Day 7, 57 days)?
Answer: faster wound closure rates

Question: What about the “tolerability / adverse animal health effects” value [2] of the same molecule?
Answer: no observed adverse animal health effects

Question: And the “wound healing / wound closure” value [3]?
Answer: more efficacious in accelerating wound healing compared to losartan

Question: And the “AT2R mRNA” value (AT2R mRNA)?
Answer: statistically non-significant increase

Question: What about the “decrease in TGFβ3 mRNA” value (TGFβ3 mRNA) of the same molecule?
Answer: 0.6 fold

Question: And the “wound healing / wound closure in AT2R^−/− mice” value (wounds of AT2R^−/− mice)?
Answer: delayed healing

Question: And the Smad1 expression (Smad1)?
Answer: decrease in the expression

Question: What about the Smad1 expression (Smad1; listed as topical Valsartan) of the same molecule?
Answer: inhibited

Question: What about the Smad2 expression (Smad2) of the same molecule?
Answer: decrease in the expression

Question: And the Smad2 expression (Smad2; listed as topical Valsartan)?
Answer: inhibited

Question: And the Smad3 expression (Smad3)?
Answer: higher expression

Question: What about the “phosphorylated Smad3” value (Smad3) of the same molecule?
Answer: higher expression

Question: What about the Smad3 expression (Smad3; listed as topical Valsartan) of the same molecule?
Answer: activated

Question: What about the “phosphorylated Smad3” value (Smad3; listed as topical Valsartan) of the same molecule?
Answer: increase in phosphorylated Smad3

Question: What about the “Smad1, 5, 9 phosphorylation” value [4] of the same molecule?
Answer: decreased; also recorded: decrease in the expression

Question: What about the “phosphorylated VEGF Receptor 2” value (VEGF Receptor 2) of the same molecule?
Answer: increase

Question: And the α-SMA [5]?
Answer: increase

Question: What about the “phosphorylation of p42/44 MAPK” value (p42/44 MAPK) of the same molecule?
Answer: enhanced phosphorylation of p42/44 MAPK

Question: What about the “mitochondrial Cox IV / mitochondrial numbers” value (mitochondrial Cox IV) of the same molecule?
Answer: significant increase in the mitochondrial numbers

Question: What about the “mitochondrial Cox IV / mitochondrial numbers” value (mitochondrial Cox IV; listed as topical Valsartan) of the same molecule?
Answer: increase in mitochondrial COX IV

Question: What about the “zone of dermal collagen” value [6] of the same molecule?
Answer: expanded zone of dermal collagen

Question: And the “dermal collagen layer thickness” value ([6]; P<0.001 vs placebo)?
Answer: 6±0.2 mm

Question: What about the epidermal layer thickness ([6]; P<0.001 vs placebo) of the same molecule?
Answer: 192±11 μm

Question: And the “collagen fiber arrangement (ultrastructural analysis)” value ([6]; vs placebo)?
Answer: more organized collagen fiber arrangement

Question: What about the “tensile strength of healing skin” value [7] of the same molecule?
Answer: higher tensile strength

Question: And the “wound healing when applied during the inflammatory phase” value (wound)?
Answer: made the wounds bigger

Question: What about the “wound healing when applied during the inflammatory phase” value (wound; listed as topical valsartan) of the same molecule?
Answer: significantly impaired wound healing

Question: And the “expected blood level of Valsartan in a human on oral Valsartan” value [8]?
Answer: 4 to 5 µM
